This note sets out measurements from ChEMBL document CHEMBL1137910, “Synthesis and biological activity of novel antibacterial quinazolines” (2004).

What all share (format): functional
Test [1] deals with Shigella sonnei. Description: Ability to inhibit growth of Shigella sonnei MTCC 2957 was determined.
Test [2] relates to Staphylococcus aureus. Briefly: Ability to inhibit growth of Staphylococcus aureus MTCC1430 was determined.
In test [3] the test system is Bacillus subtilis. Briefly: Ability to inhibit growth of Bacillus subtilis MTCC 121 was determined.
Test [4] has as its system Bacillus cereus. Description: Ability to inhibit growth of Bacillus cereus MTCC 1272 was determined.
Test [5] concerns Pseudomonas aeruginosa. Briefly: Ability to inhibit growth of Pseudomonas aeruginosa MTCC 1034 was determined.
The subject of test [6] is Escherichia coli. Briefly: Ability to inhibit growth of Escherichia coli MTCC 42 was determined.
For test [7], the system named is Enterococcus faecalis. Briefly: Ability to inhibit growth of Enterococcus faecalis MTCC 439 was determined.
Test [8] relates to Proteus vulgaris. Briefly: Ability to inhibit growth of Proteus vulgaris MTCC744 was determined.
For test [9], the system named is Klebsiella pneumoniae. Description: Ability to inhibit growth of Klebsiella pneumoniae MTCC 109 was determined.

Structures are written as SMILES.

For `Cc1ccc2nc(-c3ccccc3)nc(-c3ccc(N(C)C)cc3)c2c1`, the “Growth Inhibition” value in test [1] was 16 mm; in test [2] it was 11 mm; in test [3], 15 mm; in test [4], 14 mm; in test [5] it was 18 mm; in test [6], 18 mm. Further, the “Growth Inhibition” value came to 12 mm in test [7], 17 mm in test [8] and 19 mm in test [9].
Regarding `O=C(O)c1cn(C2CC2)c2cc(N3CCNCC3)c(F)cc2c1=O` [CIPROFLOXACIN], the “Growth Inhibition” value worked out at 21 mm in test [1]; 21 mm in test [2]; 22 mm in [3]; 17 mm in test [4]; 18 mm in test [5]; 22 mm in test [6]. In addition, the results for the “Growth Inhibition” value in [7], in test [8] and in [9] were 16 mm, 19 mm and 18 mm, respectively.
For `COc1ccc(-c2nc(N3CCCCC3)nc3ccc(C)cc23)cc1`, the “Growth Inhibition” value is on record as 21 mm in test [1]; 19 mm in [2]; 21 mm in test [3]; 16 mm in test [4]; 15 mm in test [5]; 19 mm in test [6]. Moreover, the “Growth Inhibition” value was 16 mm in test [7], 18 mm in test [8] and 20 mm in [9].
Take `Cc1ccc2nc(N3CCOCC3)nc(-c3ccc(N(C)C)cc3)c2c1`: the “Growth Inhibition” value is given as 19 mm in test [1]; 22 mm in test [2]; 18 mm in test [3]; 19 mm in [4]; 16 mm in test [5]; 20 mm in [6]. Also, the entries for the “Growth Inhibition” value in test [7], in test [8] and in [9] were 17 mm, 18 mm and 20 mm, respectively.
Turning to `COc1ccc(-c2nc(-c3ccccc3)nc3ccc(C)cc23)cc1`, the “Growth Inhibition” value in test [1] amounted to 15 mm; in [2] it was 0 mm; in test [3], 12 mm; in test [4] it was 13 mm; in test [5], 16 mm; in test [6], 16 mm. Moreover, the “Growth Inhibition” value was determined as 12 mm in test [7], 15 mm in test [8] and 17 mm in test [9].
With `Cc1ccc2nc(N3CCOCC3)nc(-c3ccccc3)c2c1`, the “Growth Inhibition” value came to 20 mm in test [1]; 12 mm in [2]; 16 mm in test [3]; 15 mm in test [4]; 19 mm in [5]; 21 mm in [6]. The “Growth Inhibition” value in [7] is 16 mm; in [8], 18 mm; in [9], 19 mm.
